Experimental data reported in paper PMC12856912, “Structure-Guided Semisynthesis of Blasticidin S–Amicetin Chimeras as Selective Ribosome Inhibitors” (Journal of the American Chemical Society, 2026).
In brackets after ≈: the same amount, converted by molar mass. Read-outs that look alike come from different tables or passages of the source.

How the values were obtained:
MRSA ATCC 43300 = assay: Antibacterial MIC assay, serial dilution; assay type: cell-based, Staphylococcus aureus; conditions: for Selectivity index (CC50/MIC) MRSA 43300: CC50 Vero cells / MIC; for MIC: Staphylococcus aureus, read-out: MIC MRSA ATCC 43300
Method: (§1) Media and solutions were autoclaved or sterile filtered prior to use and mani pulations were carri ed out in a laminar flow hood. Antibacterial t esting was performed in polypropylene 96-well flat bottom plates. The minimal inhibitory concentration of blasticidin S (1) hydrochloride, methyl ester (3) trihydrochloride, P10 (2) tri-T FA , phenet hyl amide (4) tri -T FA , an d blastimidines M 19– 22, A, 29–32, P 37–40, and C 43–46 (salt forms as described in the te xt) were assessed against Staphylococcus aureus ΔNorA, S. aureus ATCC 6538P, methicillin-resistant S. aureus (MRSA) ATCC 43300, Enterococcus faecalis ATCC 29212, vancomycin- resistant Enterococcus, Klebsiella pneumoniae ATCC 29665, Pseudomonas aeruginosa,and Acinetobacter baumannii ATCC 17978 using serial dilutions. Doxycycline (Gold Bio) as a positive control and the vehicle as a negative control. Stock solutions of each compound were prepared at 2.56 mg/mL in 50% DMSO/water and serially diluted in 50% DMSO/water to create master plates. From the master plates, 10 μ L o f each dilution was applied to test plates using a Bravo automated liquid transfer system (Agilent).
(§2) Bacteria previously grown overnight (37 °C, 120–200 RPM), in LB broth were diluted to an OD600 of 0.05 in cation-adjusted Mueller-Hinton broth (CAMHB), grown to an OD600 of ~0.5, and diluted to an OD600 of 0.004 in CAMHB . These diluted cultures were applied to the test plates (190 μL per test well) resulting in final concentrations of the test compounds of 128–1 μg/ m L.
(§3) Growth controls (wells with inoculated media but no vehicle or test compounds) were included to assess any potential toxicity from the vehicle. Th e plates were in cubated at 37 °C for 16–18 h, except fo r VRE and E. faecalis, which w ere in cub ated at 37 °C fo r 24 h. Inh ibition was determined by measuring the optical density at 600 nm (OD60 0) with a Cytation 3 pl ate read er (BioTek). The optical density measurem ents were no rmalized to the positive and negative controls and the vehicle and growth controls were compared and found to b e indistinguishable, indicating no toxicity from […]
(§4) the vehicle used. The MIC was the lowest concentration that inhibited >90% of growth. Two biological replicates were performed in duplicate. MIC values are reported as a range from […]

S. aureus ATCC 6538P = assay: Antibacterial MIC assay, serial dilution; assay type: cell-based, Staphylococcus aureus; conditions: for Selectivity index (CC50/MIC) S. aureus 6538P: CC50 Vero cells / MIC; for MIC: Staphylococcus aureus, ATCC 6538P / ATCC 6539P, read-out: MIC S. aureus ATCC 6539P
Method: as §1, §2, §3, §4

S. aureus ΔNorA = assay: Antibacterial MIC assay, serial dilution; assay type: cell-based, Staphylococcus aureus; conditions: for Selectivity index (CC50/MIC) S. aureus ΔNorA: CC50 Vero cells / MIC; for MIC: Staphylococcus aureus, read-out: MIC S. aureus ∆NorA
Method: as §1, §2, §3, §4

[1] = tested on: Methicillin resistant Staphylococcus epidermidis (MRSE) ATCC 35984 NRS101; assay: Antibacterial MIC assay, serial dilution; assay type: cell-based; conditions: for Selectivity index (CC50/MIC) MRSE 35984: CC50 Vero cells / MIC; for MIC: Staphylococcus epidermidis, read-out: MIC Methicillin resistant Staphylococcus epidermidis (MRSE) ATCC 35984 NRS101
[2] = tested on: Methicillin resistant S. aureus (MRSA) USA300; assay: Antibacterial MIC assay, serial dilution; assay type: cell-based, Staphylococcus aureus; conditions: for Selectivity index (CC50/MIC) MRSA USA300: CC50 Vero cells / MIC; for MIC: Staphylococcus aureus, read-out: MIC Methicillin resistant S. aureus (MRSA) USA300
[3] = tested on: Vancomycin resistant E. faecalis NR-31972 (VRE); assay: Antibacterial MIC assay, serial dilution; assay type: cell-based, Enterococcus faecalis; conditions: for Selectivity index (CC50/MIC) VRE NR-31972: CC50 Vero cells / MIC; for MIC: Enterococcus faecalis, VRE, 24 h, read-out: MIC Vancomycin resistant E. faecalis NR-31972 (VRE)
Method: as §1, §2, §3, §4

[4] = tested on: Acinetobacter baumannii ATCC 17978; assay: Antibacterial MIC assay, serial dilution; assay type: cell-based; conditions: ATCC17978, range from biological replicates
Method: as §1, §2, §3, §4

[5] = tested on: Enterococcus faecalis ATCC 29212; assay: Antibacterial MIC assay, serial dilution; assay type: cell-based; conditions: for Selectivity index (CC50/MIC) E. faecalis 29212: CC50 Vero cells / MIC; for MIC: Enterococcus faecalis, ATCC 29112 / ATCC 29212, 24 h, read-out: MIC E. faecalis ATCC 29112
Method: as §1, §2, §3, §4

[6] = tested on: Klebsiella pneumoniae ATCC 29665; assay: Antibacterial MIC assay, serial dilution; assay type: cell-based; conditions: for Selectivity index (CC50/MIC) K. pneumoniae: CC50 Vero cells / MIC; for MIC: Klebsiella pneumoniae, ATCC29665, range from biological replicates, read-out: MIC K. pneumoniae ATCC-29665
Method: as §1, §2, §3, §4

Pseudomonas aeruginosa = assay: Antibacterial MIC assay, serial dilution; assay type: cell-based; conditions: for Selectivity index (CC50/MIC) P. aeruginosa: CC50 Vero cells / MIC; for MIC: Pseudomonas aeruginosa, range from biological replicates, read-out: MIC P. aeruginosa
Method: as §1, §2, §3, §4

[7] = tested on: Vancomycin resistant Enterococcus faecium NR-31909 (VRE); assay: Antibacterial MIC assay, serial dilution; assay type: cell-based; conditions: for Selectivity index (CC50/MIC) VRE NR-31909: CC50 Vero cells / MIC; for MIC: Enterococcus faecium, VRE, 24 h, read-out: MIC Vancomycin resistant Enterococcus faecium NR-31909 (VRE)
Method: as §1, §2, §3, §4

[8] = tested on: Escherichia coli BAA-2452; assay: Antibacterial MIC assay, serial dilution; assay type: cell-based; conditions: BAA2452, read-out: MIC Escherichia coli BAA-2452
[9] = Cytotoxicity assay (MTS/PMS); assay type: cell-based; conditions: monkey, 24 h treatment, MTS/PMS, average of three biological replicates, read-out: CC50 against Vero cells
Method: The potential cytotoxic eff ect of the test compounds was investigated using Vero cells (monkey kidney epitheli al cells) following est ablished protocols.3 Briefly, Vero cells were plated into 96-well plates supplemented with Dulbecco's Modified Eagle Medium (DMEM) containing 10% fetal bovine serum (FBS). The cells were placed in a humidified 37 °C environment for incubation with 5% CO₂ for 24 h to allow proper adherence and growth. Following the incubation period, the culture medium was replaced with fresh DMEM containing serial dilutions of the test compounds, while the v ehicle alon e w as used as a negative control. The treated cells were incubated for an additional 24 h. To assess cell viability, the MTS/PMS reagent was added to each well and incubat ed for 4 h. A microplate reader (S ynergy H1, BioTek, USA) was used to m easure absorbance at 490 nm. Al l experiments wer e cond ucted usingthree biologi cal replicates .
Ta b l e S2. CC50 valuesa (µg/mL) against Vero cells […]
aValues at which the cell viability (normalized to vehicle control) was 50%. […]

[10] = Vero cells (monkey kidney epithelial cells)

SMILES	Selectivity index (CC50/MIC) MRSA 43300 (MRSA ATCC 43300)	MIC (MRSA ATCC 43300)	Selectivity index (CC50/MIC) S. aureus 6538P (S. aureus ATCC 6538P)	MIC (S. aureus ATCC 6538P)	Selectivity index (CC50/MIC) S. aureus ΔNorA (S. aureus ΔNorA)	MIC (S. aureus ΔNorA)	Selectivity index (CC50/MIC) MRSE 35984 [1]	MIC [1]	Selectivity index (CC50/MIC) MRSA USA300 [2]	MIC [2]	Selectivity index (CC50/MIC) VRE NR-31972 [3]	MIC [3]	MIC [4]	Selectivity index (CC50/MIC) E. faecalis 29212 [5]	MIC [5]	MIC [6]	Selectivity index (CC50/MIC) P. aeruginosa (Pseudomonas aeruginosa)	MIC (Pseudomonas aeruginosa)	MIC [7]	MIC [8]	other results
COC(=O)[C@H]1O[C@@H](n2ccc(NC(=O)c3ccc(N)cc3)nc2=O)C=C[C@@H]1NC(=O)C[C@@H](N)CCN(C)C(=N)N [Blastimidine M2]	7.9	16 µg/mL (≈ 28.8 µM)	7.9	16 µg/mL (≈ 28.8 µM)	5.9	16 to 32 µg/mL (≈ 28.8 to 57.6 µM)	7.9	16 µg/mL (≈ 28.8 µM)	16	8 µg/mL (≈ 14.4 µM)	4.0	32 µg/mL (≈ 57.6 µM)	> 128 µg/mL	16	8 µg/mL (≈ 14.4 µM)	64 µg/mL (≈ 115 µM)	<1.0	> 128 µg/mL	128 µg/mL (≈ 230 µM)	32 µg/mL (≈ 57.6 µM)	Selectivity index (CC50/MIC) K. pneumoniae [6]: 2.0; Selectivity index (CC50/MIC) VRE NR-31909 [7]: 1.0; CC50 at 24 h [9]: 126 µg/mL (≈ 227 µM)
COC(=O)[C@H]1O[C@@H](n2ccc(NC(=O)c3ccc(NC(C)=O)cc3)nc2=O)C=C[C@@H]1NC(=O)C[C@@H](N)CCN(C)C(=N)N [Blastimidine M4]	6.6	32 µg/mL (≈ 53.5 µM)	9.9	16 to 32 µg/mL (≈ 26.8 to 53.5 µM)	6.6	32 µg/mL (≈ 53.5 µM)	3.3	64 µg/mL (≈ 107 µM)	3.3	64 µg/mL (≈ 107 µM)	3.3	64 µg/mL (≈ 107 µM)	> 128 µg/mL	6.6	32 µg/mL (≈ 53.5 µM)	32 µg/mL (≈ 53.5 µM)	<1.6	> 128 µg/mL	128 µg/mL (≈ 214 µM)	64 µg/mL (≈ 107 µM)	Selectivity index (CC50/MIC) K. pneumoniae [6]: 6.6; Selectivity index (CC50/MIC) VRE NR-31909 [7]: 1.6; CC50 at 24 h [9, 10]: 210 µg/mL (≈ 351 µM)
COC(=O)[C@H]1O[C@@H](n2ccc(NC(=O)c3ccc(NC(=O)[C@@](C)(N)CO)cc3)nc2=O)C=C[C@@H]1NC(=O)C[C@@H](N)CCN(C)C(=N)N [Blastimidine M5]	2.3	64 µg/mL (≈ 97.5 µM)	2.3	64 µg/mL (≈ 97.5 µM)	2.3	64 µg/mL (≈ 97.5 µM)	2.3	64 µg/mL (≈ 97.5 µM)	2.3	64 µg/mL (≈ 97.5 µM)	2.3	64 µg/mL (≈ 97.5 µM)	> 128 µg/mL	2.3	64 µg/mL (≈ 97.5 µM)	32 to 64 µg/mL (≈ 48.7 to 97.5 µM)	<1.2	> 128 µg/mL	16 to 32 µg/mL (≈ 24.4 to 48.7 µM)	32 µg/mL (≈ 48.7 µM)	Selectivity index (CC50/MIC) K. pneumoniae [6]: 3.5; Selectivity index (CC50/MIC) VRE NR-31909 [7]: 6.3; CC50 at 24 h [9, 10]: 150 µg/mL (≈ 228 µM)
CN(CC[C@H](N)CC(=O)N[C@H]1C=C[C@H](n2ccc(N)nc2=O)O[C@@H]1C(=O)NCCc1ccccc1)C(=N)N [Blastimidine P1, blasticidin S phenethylamide]	7.3	32 µg/mL (≈ 60.9 µM)	15	16 µg/mL (≈ 30.4 µM)	1.8	128 µg/mL (≈ 244 µM)	59	4 µg/mL (≈ 7.61 µM)	20	8 to 16 µg/mL (≈ 15.2 to 30.4 µM)	15	16 µg/mL (≈ 30.4 µM)	> 128 µg/mL	15	16 µg/mL (≈ 30.4 µM)	> 128 µg/mL	2.8	64 to 128 µg/mL (≈ 122 to 244 µM)	128 µg/mL (≈ 244 µM)	> 128 µg/mL	Selectivity index (CC50/MIC) VRE NR-31909 [7]: 1.8; CC50 at 24 h [9, 10]: 235 µg/mL (≈ 447 µM)
CN(CC[C@H](N)CC(=O)N[C@H]1C=C[C@H](n2ccc(NC(=O)c3ccc(N)cc3)nc2=O)O[C@@H]1C(=O)NCCc1ccccc1)C(=N)N [Blastimidine P2]	>4.0	64 µg/mL (≈ 99.3 µM)	>12	16 to 32 µg/mL (≈ 24.8 to 49.6 µM)	>32	8 µg/mL (≈ 12.4 µM)	>16	16 µg/mL (≈ 24.8 µM)	>8.0	32 µg/mL (≈ 49.6 µM)	>16	16 µg/mL (≈ 24.8 µM)	> 128 µg/mL	>32	8 µg/mL (≈ 12.4 µM)	> 128 µg/mL	>2.0	128 µg/mL (≈ 199 µM)	128 µg/mL (≈ 199 µM)	128 µg/mL (≈ 199 µM)	Selectivity index (CC50/MIC) VRE NR-31909 [7]: >2.0; CC50 at 24 h [9, 10]: > 256 µg/mL
CC(=O)Nc1ccc(C(=O)Nc2ccn([C@H]3C=C[C@H](NC(=O)C[C@@H](N)CCN(C)C(=N)N)[C@@H](C(=O)NCCc4ccccc4)O3)c(=O)n2)cc1 [Blastimidine P4]	>2.0	128 µg/mL (≈ 186 µM)	>8.0	32 µg/mL (≈ 46.6 µM)	>24	8 to 16 µg/mL (≈ 11.6 to 23.3 µM)	>16	16 µg/mL (≈ 23.3 µM)	>4.0	64 µg/mL (≈ 93.2 µM)	>8.0	32 µg/mL (≈ 46.6 µM)	> 128 µg/mL	>8.0	32 µg/mL (≈ 46.6 µM)	> 128 µg/mL	>2.0	128 µg/mL (≈ 186 µM)	> 128 µg/mL	> 128 µg/mL	CC50 at 24 h [9, 10]: > 256 µg/mL
